The record followed here is US20240024494A1, “SMALL-MOLECULE CONJUGATE AND USE THEREOF” (SHANGHAI MEWSGEN BIOTECHNOLOGY CO., LTD, priority 2020, published 2024).

Where two headings read alike, the source gives them in different places.

In series [1] the test system is HCT116 (human colon carcinoma cells). Nature of the series: Tumor cell proliferation inhibition test, CCK-8 method (Example 19). The class given is cell-based. On the procedure:
(§1) A part of the compounds prepared in the examples of the present disclosure were subjected to a tumor cell proliferation inhibition test by using a CCK-8 method. A cell line HCT116 (human colon carcinoma cells) and SW1990 (human pancreatic carcinoma cells) were purchased from Shanghai Meixuan Technology Co., Ltd. Samples (a part of the compounds prepared in the examples) were dissolved in DMSO (Merck), prepared into a concentration of 10 mM, and finally triply diluted in DMEM or McCoy's 5A 1640 medium to 8 concentration gradients. A cell culture solution was collected when a cell culture met a test requirement, 10 μL of the cell culture solution was uniformly coated on a cell counting plate, cells were counted for 3 times under a microscope, and a cell density was calculated by taking an average value; and a 96-well plate (Corning, #3599) was taken, 200 μL of the cell culture solution was added into each well for cell inoculation at a cell concentration of 6×10^3 cells per well, and the inoculated 96-well plate was incubated in a cell incubator containing 5% CO2 at 37° C. for 24 h. An old culture medium was removed by suction, 200 μL of the triply diluted sample DMEM or McCoy's 5A 1640 medium at an initial concentration of 10 μmol/L was added to each well, the DMSO content was controlled to be 1%, three duplicate wells were set, PBS was used as a blank control, and the plate was incubated in the incubator for 72 h. The original DMEM or McCoy's 5A 1640 medium in the 96-well plate and a PBS buffer in a final row were sucked out, a prepared CCK-8 solution (90% DMEM or McCoy's 5A 1640 medium+10% CCK-8) was added, the mixture was incubated in an incubator, and an absorbance was read by using a Biotek microplate reader. Cell growth inhibition rate IC %=(blank control well OD value−administration well OD value)/blank control well OD value×100%.

Series [2] relates to SW1990 (human pancreatic carcinoma cells). Described as above. The class given is cell-based. On the procedure: as §1
The subject of series [3] is KYSE-150 (human esophageal squamous carcinoma cells). Type of series: cell-based. The conditions noted are these: 72 h. The text has this:
(§2) A part of the compounds of the examples of the present disclosure were subjected to a tumor cell proliferation inhibition test by using an MTT method (e.g. Pharmacological Research Method of New Drug, 2007: 242-243, edited by Lu Qiujun).
(§3) A cell strain was selected from KYSE-150 (human esophageal squamous carcinoma cells), MGC803 (human gastric carcinoma cells), and SHG44 (human glioma cells), and frozen and passaged by a pharmacological laboratory of Shanghai Institute of Pharmaceutical Industry. A culture solution was DMEM+10% FBS+double antibody.
(§4) In-vitro activity test: 100 μL of a cell suspension at a concentration of 4-5×10^4/mL was added to each well of a 96-well plate, and placed in a 5% CO2 incubator at 37° C. After 24 h, a sample solution was added at 10 μL/well, double duplicate wells were set, and a reaction was performed at 37° C. with 5% CO2 for 72 h. 20 μL of 5 mg/ml of an MTT solution was added into each well and reacted for 4 h, a dissolving solution was added at 100 μL/well, the mixture was placed in an incubator, and after dissolution, an OD value at 570 nm was measured with a full-wavelength multifunctional microplate reader. An inhibition rate (IR) and a median inhibitory concentration (IC50) were calculated by using an Excel software.
(§5) The inhibition rate (IR %) of the drug on cell growth was calculated according to the following equation: […]

For series [4], the system named is MGC803 (human gastric carcinoma cells). Type of series: cell-based. The conditions noted are these: 72 h.
Excerpt: as §2, §3, §4, §5

Series [5] relates to SHG44 (human glioma cells). Type of series: cell-based. Particulars: 72 h.
Excerpt: as §2, §3, §4, §5

A short description of series [6]: In-vivo antitumor activity test in human stromal tumor SHG44 (subcutaneous tumor block in nude mice). Particulars: SHG44; 10 mg/kg, Ipx5 each week for 2 continuous weeks; d22; in g (unit assumed). Also noted: species or system BALB/C nude mice. On the procedure: (§6) Animals: BALB/C nude mice (SPF grade), male, and 18-20 g. The compounds were firstly added with DMSO at a total amount of 4%, then added with Tween-80 at a total amount of 2% for assisting dissolution, then added with PEG300 at a total amount of 5%, and finally added with sterilized normal saline to be prepared into a solution at 1 mg/mL. Idasanutlin was firstly added with DMSO at a total amount of 4%, then added with Tween-80 at a total amount of 2% for assisting dissolution, then added with PEG300 at a total amount of 5%, and finally added with sterilized normal saline to be prepared into a solution at 2.5 mg/mL.
(§7) A well-grown human stromal tumor SHG44 mass was taken and aseptically cut into uniform small blocks of about 3 mm in size, and a right axilla of each mouse was subcutaneously inoculated with one block through a trocar. […] The animals were regrouped according to a tumor size. The animals with too large and too small tumors were sifted out. An average tumor volume in each group was approximately the same. An administration was started according to the following solution with an administration volume of 0.2 mL/20 g body weight. A long diameter a (mm) of the tumor and a short diameter b (mm) vertical to the tumor were measured by a digital display electronic caliper 2 times a week from day 9 of the inoculation. A tumor volume was calculated by the formula: TV=ab^2/2, and a relative tumor volume was calculated by the formula: RTV=Vt/Vo, wherein Vo was the obtained tumor volume measured at a cage separation (i.e. d1) and Vt was the tumor volume measured at each time. The animals were sacrificed 30 days after the inoculation (d22) and weighed, tumor mass was obtained by dissection and weighed, and the results were determined according to the following formula: […]

Series [7] has as its system human gastric carcinoma MGC803. Nature of the series: In-vivo antitumor activity test in human gastric carcinoma MGC803 (subcutaneous tumor block in nude mice). The conditions noted are these: MGC803; 10 mg/kg, Ipx5 each week for 2 continuous weeks; d22. Also noted: species or system BALB/C nude mice. On the procedure: as §6
as §7, with “gastric carcinoma MGC803” for “stromal”, “tumor” for “tumor SHG44”

In series [8] the test system is human esophageal cancer KYSE-150. Nature of the series: In-vivo antitumor activity test in human esophageal cancer KYSE-150 (subcutaneous tumor block in nude mice). Also noted: species or system BALB/C nude mice. The conditions noted are these: KYSE-150; 10 mg/kg, Ipx5 each week for 2 continuous weeks; d22. Here is the method:
as §6
as §7, with “esophageal cancer KYSE-150” for “stromal”, “tumor” for “tumor SHG44”

Consider `COc1cc(C(=O)NCCOCCOCCOCCOCCC(=O)N[C@@H](C(=O)N[C@@H](CCCNC(N)=O)C(=O)Nc2ccc(COC(=O)NC3=C(C)C(=O)C4=C(C3=O)[C@@H](COC(N)=O)[C@@]3(OC)[C@H]5N[C@H]5CN43)cc2)C(C)C)ccc1NC(=O)[C@@H]1N[C@@H](CC(C)(C)C)[C@](C#N)(c2ccc(Cl)cc2F)[C@H]1c1cccc(Cl)c1F` [Compound I-6], for which the IC50 in series [1] (CCK-8, 72 h, Table 1, read-out: IC50 HCT116) is 542 nM; in series [2] (CCK-8, 72 h, Table 1, read-out: IC50 SW1990), above 50000 nM; in series [3] (MTT, Table 2, read-out: IC50 KYSE-150) it was 19400 nM; in series [4] (MTT, Table 2, read-out: IC50 MGC803), above 50000 nM; in series [5] (MTT, Table 2, read-out: IC50 SHG44), above 50000 nM.
As for `COc1cc(C(=O)NCCOCCOCCOCCOCCC(=O)NCC(=O)NCC(=O)N[C@@H](Cc2ccccc2)C(=O)NCC(=O)Nc2ccc(COC(=O)N3CCN(C(=O)O[C@H]4CC[C@@]5(C)[C@H](CC[C@@H]6[C@@H]5[C@H](O)C(=O)[C@]5(C)[C@@H](c7ccc(=O)oc7)CC[C@]65O)C4)CC3)cc2)ccc1NC(=O)[C@@H]1N[C@@H](CC(C)(C)C)[C@](C#N)(c2ccc(Cl)cc2F)[C@H]1c1cccc(Cl)c1F` [Compound I-16], the IC50 in series [1] (72 h) is 210 nM; in series [2] (72 h), 22 nM; in series [3], 243 nM; in series [4] it was 402 nM; in series [5] it was 41 nM. Besides, the “Body weight of animals (After a tumor is removed)” value (“Body weight of animals” for short) in series [6] came to 25.13 ± 0.97.
In the case of `COc1cc(C(=O)NCCOCCOCCOCCOCCC(=O)N[C@@H](C(=O)N[C@@H](CCCNC(N)=O)C(=O)Nc2ccc(COC(=O)N3CCC(NC(=O)O[C@H]4CC[C@]5(C)C6CC[C@]7(C)[C@@H](c8ccc(=O)oc8)CC[C@]7(O)C6CC[C@@H]5C4)CC3)cc2)C(C)C)ccc1NC(=O)[C@@H]1N[C@@H](CC(C)(C)C)[C@](C#N)(c2ccc(Cl)cc2F)[C@H]1c1cccc(Cl)c1F` (stereo partly shown) [Compound I-4], the IC50 in series [1] (72 h) came to 728 nM; in series [2] (72 h), 576 nM; in series [3], 1060 nM; in series [4], 1670 nM; in series [5], 319 nM. The “Body weight of animals” value in series [6] was 26.10 ± 2.00; in series [7], 24.95 ± 1.62; in series [8], 24.99 ± 1.48.
On to `COc1cc(C(=O)NCCOCCOCCOCCOCCC(=O)NCC(=O)NCC(=O)N[C@@H](Cc2ccccc2)C(=O)NCC(=O)Nc2ccc(COC(=O)N3CCC(NC(=O)O[C@H]4CC[C@]5(C)C6CC[C@]7(C)[C@@H](c8ccc(=O)oc8)CC[C@]7(O)C6CC[C@@H]5C4)CC3)cc2)ccc1NC(=O)[C@@H]1N[C@@H](CC(C)(C)C)[C@](C#N)(c2ccc(Cl)cc2F)[C@H]1c1cccc(Cl)c1F` (stereo partly shown) [Compound I-17], for which the IC50 was determined as 898 nM in series [1] (72 h); 287 nM in series [2] (72 h); 1890 nM in series [3]; 1620 nM in series [4]; 204 nM in series [5]. The “Body weight of animals” value in series [6] worked out at 25.60 ± 0.98.
